We go through 13 compounds from ChEMBL document CHEMBL1201862, “PubChem BioAssay data set” (2004).

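Protocol summary: plate cells (96-well), add compound at 5 concentrations, incubate 48 h, interpolate endpoints linearly. Here, GI50 denotes the concentration required for 50% inhibition of growth.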 The source made the active and inactive calls. Rule as the data show it: active = GI50 up to about 1.1 µM and inactive = higher. A value given as a limit tells only on which side of the number the result lay.

Experiment in all cases: NCI anticancer screen, dose series, 48 h
The subject of assay [1] is Hs-578T.
For assay [2], the system named is ACHN.
Assay [3] concerns SN12C.
The test system of assay [4] is NCI-H522.
Assay [5] deals with HCT-116.
In assay [6] the test system is SW-620.
Assay [7] relates to SK-OV-3.
Assay [8] concerns MCF7.
In assay [9] the test system is CCRF-CEM.
Assay [10] concerns NCI/ADR-RES.
The test system of assay [11] is HOP-62.
Assay [12] concerns UACC-62.
Assay [13] has as its system A549.
Assay [14] relates to T47D.
For assay [15], the system named is Malme-3M.
In assay [16] the test system is SK-MEL-28.
Assay [17] relates to PC-3.
Assay [18] concerns SNB-75.
For assay [19], the system named is SR.

For `Cc1cc(=O)[nH]c(-n2[nH]c(C)c(CCO)c2=O)n1`, the GI50 in assay [1], in [2], in [3], in assay [4], in assay [5] and in assay [6] was > 100 µM (inactive) throughout. For the same compound, the GI50 in assay [7], in assay [8], in [9], in [10], in [11] and in assay [12] was > 100 µM (inactive) each time. The GI50 in assay [13], in assay [14], in assay [15], in assay [16] and in [17] was > 100 µM (inactive) in each case.
With `Cn1cc(C(=O)NCCC(=N)N)cc1NC(=O)C1=[N+](C)C=C(NC(=O)c2cccc(C(=O)NC3=CC(C(=O)Nc4cc(C(=O)NCCC(=N)N)cn4C)=[N+](C)C3)c2)C1`, the GI50 in [2] is > 100 µM (inactive); in assay [3], 88.5 µM (inactive); in assay [4], > 100 µM (inactive); in [6], > 100 µM (inactive); in [7] it was > 100 µM (inactive); in [18] it was > 100 µM (inactive). Besides, the GI50 in assay [9] was > 100 µM (inactive); in [19] it was > 100 µM (inactive); in assay [11], > 100 µM (inactive); in assay [12], 37.8 µM (inactive); in assay [13], > 100 µM (inactive); in assay [15], 24.8 µM (inactive). Besides, the GI50 in assay [16] is > 100 µM (inactive).
For the compound `Cc1cc2nc3ccccc3n2c2ccccc12`, the GI50 in [1], in assay [2], in assay [3], in [4], in [5] and in assay [6] was > 10 µM (inactive) throughout. Moreover, the GI50 in assay [7] was > 10 µM (inactive); in [8] it was > 10 µM (inactive); in [18], > 10 µM (inactive); in [9] it was 5.96 µM (inactive); in assay [19], > 10 µM (inactive); in assay [10], > 10 µM (inactive). The GI50 in [11], in assay [12], in assay [13], in assay [14], in assay [15] and in assay [16] was > 10 µM (inactive) throughout. Moreover, the GI50 in assay [17] is > 10 µM (inactive).
As to `O=C(/C(=C\c1ccccc1)CN1CCOCC1)c1ccc(Br)cc1`, the GI50 in assay [2] is 1.75 µM (inactive); in assay [3], 2.06 µM (inactive); in assay [4], 1.28 µM (inactive); in [5], 1.72 µM (inactive); in assay [6], 1.18 µM (inactive); in assay [7], 3.61 µM (inactive). Also, the GI50 is 10.8 µM (inactive) in [18]; 0.714 µM (active) in [9]; 1.16 µM (inactive) in assay [19]; 6.27 µM (inactive) in assay [11]; 1.55 µM (inactive) in assay [12]; 6.64 µM (inactive) in assay [13]. In addition, the GI50 in [15] is 1.78 µM (inactive); in assay [16] it was 1.76 µM (inactive).
On to `Cc1ccc(S(=O)(=O)n2c3ccc(Br)cc3c3nc4ccccc4nc32)cc1`, for which the GI50 in [1] was > 100 µM (inactive); in [2], > 100 µM (inactive); in assay [3], > 100 µM (inactive); in assay [4], 0.649 µM (active); in [5] it was > 100 µM (inactive); in [6], > 100 µM (inactive). Further, the GI50 in assay [18], in assay [9], in assay [10], in [11], in assay [12] and in assay [13] was > 100 µM (inactive) each time. Moreover, the GI50 in assay [14], in [16] and in assay [17] was > 100 µM (inactive) in each case.
On to `CC(NC(=O)Cc1ccc(OP(=O)(OCc2ccc([N+](=O)[O-])o2)N(C)CCCCCl)cc1)c1ccc(OCC2CCCCC2)c(C(N)=O)c1` (stereo unspecified), for which the GI50 in assay [1] is 1.92 µM (inactive); in [2], 3.56 µM (inactive); in assay [3] it was 1.96 µM (inactive); in [4] it was 2.25 µM (inactive); in assay [5] it was 1.85 µM (inactive); in assay [6] it was 3.45 µM (inactive). Besides, the GI50 in assay [7] was 3.08 µM (inactive); in assay [8], 2.52 µM (inactive); in assay [9] it was 0.906 µM (active); in assay [19] it was 1.48 µM (inactive); in [10] it was 4.5 µM (inactive); in assay [11], 2.65 µM (inactive). The GI50 in assay [12] was 1.74 µM (inactive); in assay [13] it was 1.87 µM (inactive); in assay [14], 1.18 µM (inactive); in assay [15], 1.77 µM (inactive); in assay [16] it was 1.65 µM (inactive); in assay [17], 2.88 µM (inactive).
For the compound `N#CC(C(=O)CCC(=O)Nc1cccc(Cl)c1)c1ccccc1` (stereo unspecified), the GI50 in [2], in assay [3], in assay [4], in assay [5], in assay [7] and in assay [18] was > 100 µM (inactive) in each case. Moreover, the GI50 in assay [9], in [19], in [11], in assay [12], in assay [13] and in [15] was > 100 µM (inactive) in each case. In addition, the GI50 in assay [16] was > 100 µM (inactive).
Regarding `COc1ccc(CCN2CCC(C#N)(c3ccc(OC)c(OC)c3)CC2)cc1OC`, the GI50 is > 100 µM (inactive) in assay [2]; > 100 µM (inactive) in [3]; 84.9 µM (inactive) in [4]; > 100 µM (inactive) in [5]; > 100 µM (inactive) in assay [6]; > 100 µM (inactive) in assay [7]. Besides, the GI50 in assay [18] is 30.5 µM (inactive); in assay [9], > 100 µM (inactive); in [19] it was > 100 µM (inactive); in assay [11], > 100 µM (inactive); in [12] it was > 100 µM (inactive); in assay [13], > 100 µM (inactive). For the same compound, the GI50 in assay [15] and in assay [16] was > 100 µM (inactive) throughout.
With `O=C(NC/C=C/Br)NC1CCNc2ccccc21` (stereo unspecified), the GI50 in [2] was 58.3 µM (inactive); in assay [3], 45.4 µM (inactive); in assay [4], 74 µM (inactive); in [5], 30.1 µM (inactive); in [6], 52.8 µM (inactive); in assay [7], > 100 µM (inactive). In addition, the GI50 in assay [8] is 19.3 µM (inactive); in assay [18], 45 µM (inactive); in [9], 36.4 µM (inactive); in [19], 35 µM (inactive); in assay [10] it was 32.1 µM (inactive); in assay [11], 45.2 µM (inactive). Further, the GI50 in assay [12] was 31.3 µM (inactive); in [13] it was 32.2 µM (inactive); in assay [14], 36.5 µM (inactive); in assay [15], 31.6 µM (inactive); in assay [16] it was 33.7 µM (inactive); in assay [17] it was 37.3 µM (inactive).
`O=C1NC(=S)NC(=O)C1=Cc1cc2c(cc1[N+](=O)[O-])OCO2`: the GI50 in assay [2] was > 100 µM (inactive); in assay [3], 74.6 µM (inactive); in [4], > 100 µM (inactive); in assay [5], 54.1 µM (inactive); in assay [6] it was 39.1 µM (inactive); in assay [7] it was > 100 µM (inactive). For the same compound, the GI50 in [18] is > 100 µM (inactive); in assay [9] it was 55.3 µM (inactive); in assay [19], 35.9 µM (inactive); in [11], > 100 µM (inactive); in [12], > 100 µM (inactive); in [13], > 100 µM (inactive). Further, the GI50 in assay [15] and in assay [16] was > 100 µM (inactive) throughout.
`Cn1ncc2c(c1=O)Nc1ccccc1S2(=O)=O`: the GI50 in assay [2] is > 100 µM (inactive); in assay [3], > 100 µM (inactive); in assay [4] it was > 100 µM (inactive); in assay [5], 50 µM (inactive); in assay [6], 10.8 µM (inactive); in assay [7], > 100 µM (inactive). The GI50 in assay [18] is > 100 µM (inactive); in assay [9], 61.1 µM (inactive); in assay [19], 51.3 µM (inactive); in [11] it was > 100 µM (inactive); in assay [12], > 100 µM (inactive); in assay [13], > 100 µM (inactive). Moreover, the GI50 in assay [15] and in assay [16] was > 100 µM (inactive) throughout.
Consider `Cc1cc(NCCCCCCCNc2cc(C)nc3cc(N)ccc23)c2ccc(N)cc2n1`, for which the GI50 in assay [2] was > 100 µM (inactive); in assay [3], 10.5 µM (inactive); in assay [4], 13.7 µM (inactive); in assay [5], 27.6 µM (inactive); in assay [7] it was 40.6 µM (inactive); in assay [18], 25.2 µM (inactive). For the same compound, the GI50 in assay [9] is 15.6 µM (inactive); in assay [19] it was 18.6 µM (inactive); in assay [11], 41.9 µM (inactive); in assay [12] it was 35.5 µM (inactive); in assay [13], 29.9 µM (inactive); in assay [15], 36 µM (inactive). Besides, the GI50 in assay [16] was 32.7 µM (inactive).
`CCCCN[C@H]1C2C3CC4C5CC(C42)C1(C)C53` (stereo partly specified): the GI50 in assay [2], in assay [3], in [4], in [5], in assay [6] and in [7] was > 100 µM (inactive) throughout. Besides, the GI50 in assay [18], in assay [9], in assay [19], in assay [11], in assay [12] and in assay [13] was > 100 µM (inactive) in each case. For the same compound, the GI50 in assay [15] and in assay [16] was > 100 µM (inactive) throughout.
